Where two headings read alike, the source gives them in different places.
How the values were obtained:
Assay in all cases: HOTSPOT radiometric kinase assay
Type in all cases: biochemical
[1] = target: T1, smMLCK (Homo sapiens, UniProt Q15746); details: 10 μM ATP
T1 construct: purchased Reaction Biology Corp

[2] = target: T2, PKCε (Homo sapiens, UniProt Q02156); details: 10 μM ATP
T2 construct: purchased Reaction Biology Corp

[3] = target: T3, RSK1 (Homo sapiens, UniProt Q15418); details: 10 μM ATP
T3 construct: purchased Reaction Biology Corp

[4] = target: T4, PKCμ/PKD1 (Homo sapiens, UniProt Q15139); details: 10 μM ATP
T4 construct: purchased Reaction Biology Corp

[5] = target: T5, CDK2 (Homo sapiens, UniProt P24941); details: 10 μM ATP
T5 construct: purchased Reaction Biology Corp

[6] = target: T6, WNK1 (Homo sapiens, UniProt Q9H4A3); details: 10 μM ATP
T6 construct: purchased Reaction Biology Corp

[7] = target: T7, CLK3 (Homo sapiens, UniProt P49761); details: 10 μM ATP
T7 construct: purchased Reaction Biology Corp. (Malvern, PA, USA)

[8] = target: T8, MPSK1 (Homo sapiens, UniProt O75716); details: 10 μM ATP
T8 construct: purchased Reaction Biology Corp

[9] = target: T9, CLK1 (Homo sapiens, UniProt P49759); details: 2 μM, 10 μM ATP
T9 construct: purchased Reaction Biology Corp

[10] = target: T10, LATS1 (Homo sapiens, UniProt O95835); details: 10 μM ATP
T10 construct: purchased Reaction Biology Corp
T10 sequence (O95835 1-1130): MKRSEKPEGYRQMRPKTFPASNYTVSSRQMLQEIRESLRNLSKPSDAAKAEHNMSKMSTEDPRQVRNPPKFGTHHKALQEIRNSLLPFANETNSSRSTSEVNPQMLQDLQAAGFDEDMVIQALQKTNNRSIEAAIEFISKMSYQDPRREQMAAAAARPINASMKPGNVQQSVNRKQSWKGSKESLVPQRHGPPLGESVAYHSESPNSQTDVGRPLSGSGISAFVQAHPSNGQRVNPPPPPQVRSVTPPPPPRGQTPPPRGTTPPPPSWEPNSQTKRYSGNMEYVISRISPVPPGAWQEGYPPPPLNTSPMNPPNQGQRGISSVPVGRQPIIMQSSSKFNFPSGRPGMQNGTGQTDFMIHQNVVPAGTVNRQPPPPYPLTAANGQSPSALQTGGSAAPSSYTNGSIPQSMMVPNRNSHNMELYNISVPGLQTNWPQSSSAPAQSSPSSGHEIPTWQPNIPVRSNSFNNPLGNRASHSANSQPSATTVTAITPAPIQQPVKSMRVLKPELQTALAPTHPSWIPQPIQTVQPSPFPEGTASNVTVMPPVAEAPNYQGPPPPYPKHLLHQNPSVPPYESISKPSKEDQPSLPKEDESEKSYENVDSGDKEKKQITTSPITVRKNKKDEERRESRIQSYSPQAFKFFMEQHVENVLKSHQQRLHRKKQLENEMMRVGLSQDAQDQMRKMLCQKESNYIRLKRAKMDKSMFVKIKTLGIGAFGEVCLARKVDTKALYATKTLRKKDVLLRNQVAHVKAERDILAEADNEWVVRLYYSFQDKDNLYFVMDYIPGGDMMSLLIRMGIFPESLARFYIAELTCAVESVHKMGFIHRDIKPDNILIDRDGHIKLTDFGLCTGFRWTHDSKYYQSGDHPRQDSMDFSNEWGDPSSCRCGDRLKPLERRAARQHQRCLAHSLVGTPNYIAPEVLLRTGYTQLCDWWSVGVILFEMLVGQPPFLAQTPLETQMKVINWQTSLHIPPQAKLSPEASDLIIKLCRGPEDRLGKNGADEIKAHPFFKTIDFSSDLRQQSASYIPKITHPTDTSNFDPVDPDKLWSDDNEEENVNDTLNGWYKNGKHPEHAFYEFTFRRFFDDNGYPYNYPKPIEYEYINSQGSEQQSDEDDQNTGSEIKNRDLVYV

[11] = target: T11, BMX (Homo sapiens, UniProt P51813); details: 10 μM ATP
T11 construct: purchased Reaction Biology Corp

[12] = target: T12, EPHB3 (Homo sapiens, UniProt P54753); details: 10 μM ATP
T12 construct: purchased Reaction Biology Corp

[13] = target: T13, DYRK1A (Homo sapiens, UniProt Q13627)
T13 construct: purchased Reaction Biology Corp

[14] = target: T14, ROCK2 (Homo sapiens, UniProt O75116); details: 10 μM ATP
T14 construct: purchased Reaction Biology Corp

[15] = target: T15, FLT3 (Homo sapiens, UniProt P36888)
T15 construct: purchased Reaction Biology Corp

[16] = target: T16, DYRK4 (Homo sapiens, UniProt Q9NR20); details: 10 μM ATP
T16 construct: purchased Reaction Biology Corp

[17] = target: T17, RAF1 (Homo sapiens, UniProt P04049, Y340D/Y341D); details: 10 μM ATP
T17 construct: purchased Reaction Biology Corp

[18] = target: T18, P70S6K (Homo sapiens, UniProt P23443); details: 10 μM ATP
T18 construct: purchased Reaction Biology Corp

[19] = target: T19, LATS2 (Homo sapiens, UniProt Q9NRM7); details: 10 μM ATP
T19 construct: purchased Reaction Biology Corp

[20] = target: T20, PKCγ (Homo sapiens, UniProt P05129)
T20 construct: purchased Reaction Biology Corp

[21] = target: T21, HASPIN (Homo sapiens, UniProt Q8TF76); details: 10 μM ATP
T21 construct: purchased Reaction Biology Corp

T19 sequence (Q9NRM7 whole entry): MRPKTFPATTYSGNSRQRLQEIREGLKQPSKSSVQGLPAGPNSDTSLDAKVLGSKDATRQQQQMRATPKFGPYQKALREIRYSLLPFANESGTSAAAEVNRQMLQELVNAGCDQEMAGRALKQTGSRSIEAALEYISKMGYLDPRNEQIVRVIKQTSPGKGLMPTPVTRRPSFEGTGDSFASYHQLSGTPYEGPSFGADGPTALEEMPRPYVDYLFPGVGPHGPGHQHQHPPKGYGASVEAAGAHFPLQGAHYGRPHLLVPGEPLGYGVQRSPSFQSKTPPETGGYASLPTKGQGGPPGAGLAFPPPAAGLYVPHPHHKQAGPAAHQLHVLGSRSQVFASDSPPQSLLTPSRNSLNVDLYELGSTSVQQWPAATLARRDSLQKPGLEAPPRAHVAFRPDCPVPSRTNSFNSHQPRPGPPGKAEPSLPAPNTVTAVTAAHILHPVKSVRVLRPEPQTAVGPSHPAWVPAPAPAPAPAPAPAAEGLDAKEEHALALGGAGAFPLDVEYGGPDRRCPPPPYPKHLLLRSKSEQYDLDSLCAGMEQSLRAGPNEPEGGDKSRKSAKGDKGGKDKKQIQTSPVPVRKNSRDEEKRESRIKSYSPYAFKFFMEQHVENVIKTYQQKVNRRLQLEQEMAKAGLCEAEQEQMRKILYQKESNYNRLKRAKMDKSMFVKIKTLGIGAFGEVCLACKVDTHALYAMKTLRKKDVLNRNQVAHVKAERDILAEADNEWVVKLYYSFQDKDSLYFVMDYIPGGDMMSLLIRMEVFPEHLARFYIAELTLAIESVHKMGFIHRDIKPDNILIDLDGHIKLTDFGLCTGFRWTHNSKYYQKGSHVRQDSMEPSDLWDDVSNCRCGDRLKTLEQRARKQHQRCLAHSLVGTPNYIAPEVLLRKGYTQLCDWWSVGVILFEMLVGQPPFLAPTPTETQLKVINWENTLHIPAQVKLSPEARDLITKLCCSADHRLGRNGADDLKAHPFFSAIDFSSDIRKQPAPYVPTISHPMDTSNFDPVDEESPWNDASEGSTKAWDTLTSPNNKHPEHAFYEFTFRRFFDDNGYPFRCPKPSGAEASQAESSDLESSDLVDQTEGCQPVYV
T6 sequence (Q9H4A3 whole entry): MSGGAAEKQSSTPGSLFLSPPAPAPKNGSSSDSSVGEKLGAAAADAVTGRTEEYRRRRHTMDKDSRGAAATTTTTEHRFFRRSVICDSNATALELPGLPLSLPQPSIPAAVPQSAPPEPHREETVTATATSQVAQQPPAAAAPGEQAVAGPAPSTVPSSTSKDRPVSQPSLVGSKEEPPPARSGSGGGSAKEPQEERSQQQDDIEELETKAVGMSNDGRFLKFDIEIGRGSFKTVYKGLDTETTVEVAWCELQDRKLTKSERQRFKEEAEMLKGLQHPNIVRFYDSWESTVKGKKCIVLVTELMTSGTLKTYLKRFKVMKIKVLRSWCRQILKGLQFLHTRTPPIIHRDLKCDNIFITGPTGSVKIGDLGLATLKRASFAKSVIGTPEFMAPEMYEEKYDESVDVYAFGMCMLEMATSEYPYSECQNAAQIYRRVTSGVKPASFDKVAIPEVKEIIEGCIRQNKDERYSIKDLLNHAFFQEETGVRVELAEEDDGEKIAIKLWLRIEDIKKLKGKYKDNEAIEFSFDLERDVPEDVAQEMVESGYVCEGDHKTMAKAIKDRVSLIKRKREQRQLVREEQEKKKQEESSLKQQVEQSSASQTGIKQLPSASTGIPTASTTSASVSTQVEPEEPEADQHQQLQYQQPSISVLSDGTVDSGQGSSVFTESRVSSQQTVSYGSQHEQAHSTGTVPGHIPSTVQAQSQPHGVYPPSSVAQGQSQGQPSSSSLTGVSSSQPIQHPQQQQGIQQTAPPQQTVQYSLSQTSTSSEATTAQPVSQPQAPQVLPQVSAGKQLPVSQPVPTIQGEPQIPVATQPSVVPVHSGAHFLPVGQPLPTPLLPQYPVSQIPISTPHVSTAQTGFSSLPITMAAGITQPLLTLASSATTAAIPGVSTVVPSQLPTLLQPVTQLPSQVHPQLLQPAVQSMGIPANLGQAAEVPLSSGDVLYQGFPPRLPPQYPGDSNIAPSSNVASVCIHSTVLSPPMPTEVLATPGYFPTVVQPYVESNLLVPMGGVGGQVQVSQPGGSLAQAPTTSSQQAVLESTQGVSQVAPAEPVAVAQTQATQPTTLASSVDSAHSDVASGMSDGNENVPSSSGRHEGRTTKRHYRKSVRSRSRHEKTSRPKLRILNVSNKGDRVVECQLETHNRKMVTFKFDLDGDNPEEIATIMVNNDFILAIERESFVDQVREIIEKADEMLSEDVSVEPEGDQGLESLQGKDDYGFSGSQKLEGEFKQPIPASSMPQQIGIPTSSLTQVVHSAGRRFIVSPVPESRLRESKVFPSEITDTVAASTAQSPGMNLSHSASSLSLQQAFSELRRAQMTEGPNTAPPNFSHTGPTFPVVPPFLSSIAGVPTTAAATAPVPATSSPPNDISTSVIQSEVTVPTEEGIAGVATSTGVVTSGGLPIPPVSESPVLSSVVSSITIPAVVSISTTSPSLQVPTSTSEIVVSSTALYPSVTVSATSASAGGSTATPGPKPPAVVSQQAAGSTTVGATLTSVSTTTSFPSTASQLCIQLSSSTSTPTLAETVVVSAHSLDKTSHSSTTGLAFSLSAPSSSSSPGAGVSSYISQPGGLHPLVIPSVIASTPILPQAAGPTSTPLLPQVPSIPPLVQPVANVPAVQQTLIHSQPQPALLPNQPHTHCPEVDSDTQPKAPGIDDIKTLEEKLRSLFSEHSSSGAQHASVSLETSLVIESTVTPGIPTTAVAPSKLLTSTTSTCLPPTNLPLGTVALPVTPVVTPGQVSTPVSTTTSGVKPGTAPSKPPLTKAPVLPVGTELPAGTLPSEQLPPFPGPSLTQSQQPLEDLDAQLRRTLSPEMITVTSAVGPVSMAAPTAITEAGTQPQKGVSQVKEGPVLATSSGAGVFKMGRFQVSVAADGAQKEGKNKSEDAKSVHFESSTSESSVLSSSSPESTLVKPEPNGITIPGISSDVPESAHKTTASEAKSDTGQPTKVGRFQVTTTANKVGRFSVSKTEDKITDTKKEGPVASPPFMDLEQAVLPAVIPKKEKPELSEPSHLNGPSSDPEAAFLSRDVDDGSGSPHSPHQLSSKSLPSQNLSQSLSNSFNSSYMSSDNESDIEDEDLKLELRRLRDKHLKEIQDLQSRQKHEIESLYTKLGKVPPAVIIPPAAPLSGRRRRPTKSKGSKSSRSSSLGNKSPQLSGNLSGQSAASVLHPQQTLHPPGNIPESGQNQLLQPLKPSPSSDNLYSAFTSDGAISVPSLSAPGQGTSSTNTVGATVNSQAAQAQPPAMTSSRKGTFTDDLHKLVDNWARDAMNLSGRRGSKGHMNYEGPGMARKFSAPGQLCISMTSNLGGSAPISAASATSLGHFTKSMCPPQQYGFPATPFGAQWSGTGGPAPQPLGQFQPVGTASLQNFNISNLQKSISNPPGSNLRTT
T18 sequence (P23443 whole entry): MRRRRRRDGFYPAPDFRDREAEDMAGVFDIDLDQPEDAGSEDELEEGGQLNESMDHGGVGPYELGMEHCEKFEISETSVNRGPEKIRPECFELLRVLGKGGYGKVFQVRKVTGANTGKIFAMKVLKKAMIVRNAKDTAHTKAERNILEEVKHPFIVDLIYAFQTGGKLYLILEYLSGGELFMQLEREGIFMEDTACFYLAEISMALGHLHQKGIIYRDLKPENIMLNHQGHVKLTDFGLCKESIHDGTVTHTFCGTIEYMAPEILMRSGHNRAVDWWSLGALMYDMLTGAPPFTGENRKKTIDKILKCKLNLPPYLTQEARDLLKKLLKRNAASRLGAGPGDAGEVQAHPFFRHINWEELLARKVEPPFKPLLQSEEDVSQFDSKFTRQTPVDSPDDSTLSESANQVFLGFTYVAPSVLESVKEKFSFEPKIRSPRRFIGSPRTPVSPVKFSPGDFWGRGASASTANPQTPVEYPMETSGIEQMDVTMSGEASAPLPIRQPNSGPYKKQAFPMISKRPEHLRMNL
T17 sequence (P04049 306-648 Y340D/Y341D limits assumed): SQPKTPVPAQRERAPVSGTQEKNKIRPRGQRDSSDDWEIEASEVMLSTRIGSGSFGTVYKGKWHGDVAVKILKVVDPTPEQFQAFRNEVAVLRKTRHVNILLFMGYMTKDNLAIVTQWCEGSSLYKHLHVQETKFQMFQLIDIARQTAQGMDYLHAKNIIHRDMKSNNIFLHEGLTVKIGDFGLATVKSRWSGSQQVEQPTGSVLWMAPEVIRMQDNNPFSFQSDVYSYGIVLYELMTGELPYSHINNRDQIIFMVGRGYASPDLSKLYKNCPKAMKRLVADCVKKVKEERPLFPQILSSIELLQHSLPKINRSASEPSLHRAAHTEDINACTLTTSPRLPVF

SMILES: Cn1cncc1C1=CN(c2ncnc3nc[nH]c23)CCS1 [Compound 1, Aplithianine A]
- inhibition at 0.05 µM ([1]; 50 nM): 18.2%
- inhibition at 2 µM ([1]; 2 μM): 91.1%
- inhibition at 0.05 µM ([2]; 50 nM): 25.8%
- inhibition at 2 µM ([2]; 2 μM): 92.7%
- inhibition at 0.05 µM ([3]; 50 nM): 13%
- inhibition at 2 µM ([3]; 2 μM): 82%
- inhibition at 0.05 µM ([4]; 50 nM): 21.3%
- inhibition at 2 µM ([4]; 2 μM): 89.2%
- inhibition at 0.05 µM ([5]; 50 nM): 12.6%
- inhibition at 2 µM ([5]; 2 μM): 49.1%
- inhibition at 0.05 µM ([6]; 50 nM): 14.1%
- inhibition at 2 µM ([6]; 2 μM): 10.7%
- IC50 [7]: 14100 nM
- inhibition at 0.05 µM ([8]; 50 nM): 22%
- inhibition at 2 µM ([8]; 2 μM): 49.5%
- inhibition at 2 µM [9]: 97.3%
- inhibition at 0.05 µM ([10]; 50 nM): 35%
- inhibition at 2 µM ([10]; 2 μM): 96.1%
- inhibition at 0.05 µM ([11]; 50 nM): 13.9%
- inhibition at 2 µM ([11]; 2 μM): 40%
- inhibition at 0.05 µM ([12]; 50 nM): 12.8%
- inhibition at 2 µM ([12]; 2 μM): 20.2%
- inhibition at 0.05 µM ([13]; 50 nM, 10 μM ATP): 23.1%
- inhibition at 2 µM ([13]; 2 μM, 10 μM ATP): 95.4%
- IC50 ([13]; 10 μM ATP, read-out: DYRK1A IC50): 119 nM
- DYRK1A Differential (as compared to PKG1a) ([13]; IC50 (kinase)/IC50 (PKG1a)): 10.01
- IC50 ([13]; Table 4 dose-response, read-out: DYRK1A IC50 Values): 114 nM
- inhibition at 0.05 µM ([14]; 50 nM): 19.6%
- inhibition at 2 µM ([14]; 2 μM): 93.3%
- inhibition at 0.05 µM ([15]; 50 nM, 10 μM ATP): 22.2%
- inhibition at 2 µM ([15]; read-out: FLT3 % inhibition): 88.1%
- IC50 [16]: 15200 nM
- inhibition at 0.05 µM ([17]; 50 nM): 21.6%
- inhibition at 2 µM ([17]; 2 μM): 47%
- inhibition at 0.05 µM ([18]; 50 nM): 14%
- inhibition at 2 µM ([18]; 2 μM): 87.3%
- inhibition at 0.05 µM ([19]; 50 nM): 34.2%
- inhibition at 2 µM ([19]; 2 μM): 92.9%
- inhibition at 0.05 µM ([20]; 50 nM, 10 μM ATP): 30.5%
- inhibition at 2 µM ([20]; 2 μM, 10 μM ATP): 92.8%
- IC50 ([20]; 10 μM ATP, read-out: PKCγ IC50): 234 nM
- PKCg Differential (as compared to PKG1a) ([20]; IC50 (kinase)/IC50 (PKG1a)): 13.99
- IC50 ([20]; Table 4 dose-response, read-out: PKCg IC50 Values): 159 nM
- inhibition at 0.05 µM ([21]; 50 nM): 25.6%
- inhibition at 2 µM ([21]; 2 μM): 88.4%

Source: patent US20260184713A1, “KINASE INHIBITORS” (The United States of America, as represented by the …, priority 2022, published 2026)
